# Data taken from patent US20140031431A1, “PEST-IMPERVIOUS PACKAGING MATERIAL AND PEST-CONTROL COMPOSITION” (Biopack Ltd., priority 2004, published 2014).
# Tests used:
# [1] = tested on: several field and storage insects; details: direct application methods; cited from earlier work
# storage insects = experiment: Penetration prevention (antifeedant) effect judged from combined repellency, choice and non-choice bioassays; assay type: in vivo, Rhyzopertha dominica; parameters: key: 0 (no effect); +; ++; +++ (strong effect); details: at 50 μg/cm^2, 4 arbitrary classes
# Procedure: (§1) In order to evaluate the effect of isolated samples or compounds on the behavior of storage insects, three bioassays were conducted: repellency, “choice” and “non-choice” paper perforation bioassays. These bioassays were aimed to uncover two principle activities: repellency and antifeedant activities. Accordingly, the “repellency bioassay” uncovered the sample's capacity to repel insects and the “choice bioassay” uncovered the combined antifeedant and repelling activities. […] Thus, the combined data of all three bioassays enabled determining the antifeedant capacity of the sample.
# [2] = tested on: storage beetle Tribolium castaneum; details: as long as 8 weeks following application; cited from earlier work
# R. dominica adults [3] = experiment: Non-choice paper perforation bioassay (Examples 2-4); assay type: in vivo, Rhyzopertha dominica; details: 24 hours
# Source text: The device used for the penetration prevention bioassay consisted of two identical open-ended glass cylinders (24 mm i.d., 28 mm o.d., 26 mm height) each with four notches spaced at equal distances around the outer rim. The impregnated office paper and a piece of wire-mesh (US standard No. 25) cut into 28 mm diameter discs were placed together on top of one cylinder. Then the second cylinder was placed over the wire-mesh and the two cylinders were pressed together and held in place by two rubber bands, secured by the notches in the cylinder rims (Navarro et al., 1998). Ten 10-15 d old R. dominica adults were placed inside the top cylinder and were kept in the test devices for […] in a temperature and humidity controlled room. All tests were run at 27° C. and 65% R.H., and there were ten replicates (devices) per test. At the end of each exposure period, the discs were examined on a black surface under a binocular microscope at 15× magnification. The number of perforations appearing as black circles were counted, and a comparative analysis was performed using the Student's t test for residual effect and the differences between control and dosages applied were determined using Dunnet's test (Anon., 1989). […]
# T. castaneum adults = experiment: Repellency bioassay (Examples 2-4); assay type: in vivo, Tribolium castaneum; parameters: key to Repellency: 0 (no effect); +; ++; +++ (strong effect)
# Procedure: as §1
# The propensity of the tested extracts to repel insects was determined against T. castaneum adults using the methods by Laudani et al. (1955) and McDonald et al. (1970). Accordingly, filter paper strips (Filtrak 3 HW; 10×20 cm) were treated with 4 ml of acetone solutions of turmeric extracts at 50 μg/cm^2 (or any other predetermined concentration). Each treated paper strip was attached lengthwise by Scotch tape on the reverse side, edge to edge, to two untreated 5×20 cm strips, to which acetone alone had been similarly applied. Two glass rings, 2.5 cm high and 6.4 cm i.d., were then placed over the two matched papers so that the joined edges of the papers bisected the rings. Ten adults of the test insect species were then exposed separately on the test arenas inside each glass ring, and their numbers on the treated and untreated halves were recorded every hour for the first eight hours exposure on the first day, and then in the morning of the next day two additional recordings were made for a total of 10 consecutive readings. In each test four replicates were conducted. All tests were performed at 27° C. The average count of all four replicates, each containing 10 reading periods was converted to percent repellency values, as described by Laudani et al. (1955).
# R. dominica adults [4] = experiment: Choice paper perforation bioassay (Examples 2-4); assay type: in vivo, Rhyzopertha dominica
# Procedure: as §1
# The same methodology used in the non-choice test was used in this test. However, in choice test, the 28 mm diameter discs of 110 μm thick office paper were divided in half; one side was impregnated with the oil or fraction under test, while the other half was used as a blank and was treated with acetone only. In this test only a 50 microgram sample of the test oil or fraction was applied per cm^2 of paper. […] The number of perforations appearing in the two parts of the disc were counted, and a comparative analysis was performed using the Student's t test for residual effect and the differences between control and dosages applied were determined using Dunnet's test (Anon., 1989).
structure (smiles),measurement,setting,value
"CC(C)=CC(=O)CC(C)c1ccc(C)cc1 (stereo not drawn) [ar-turmerone, 2-methyl-6-(4-methylphenyl)-2-hepten-4-one]",concentration at which insecticidal,[1],at least 500 ppm
same,Penetration prevention effect,storage insects,0
same,average repellency,[2],62.9%
same,repellency class,[2],"IV (class IV, 60.1-80%)"
same,Non-choice test (%) (50 μg/cm^2),R. dominica adults [3],−483%
same,Repellency test (%) (50 μg/cm^2),T. castaneum adults; 50 μg/cm^2,75%
same,Repellency,"T. castaneum adults; at 50 μg/cm^2, 4 arbitrary classes",+++
same,ar-turmerone required to achieve 60% repellency,T. castaneum adults; estimated from concentration-repellency curve (FIG. 2),~32 μg/cm^2
same,Choice Test (%) (50 μg/cm^2),R. dominica adults [4],89%
